Measurements taken from PubChem BioAssay AID248 (DTP/NCI, 2004).
Where “and” joins values, the source holds several entries; their conditions need not be identical. Identical values can stand only once. Inconclusive results and toxic doses are left out. Cut-off read from the data, not from the text of the source: active = T/C of 150% or more; inactive = T/C below 125%.

Tested on: L1210 leukemia ip in BDF1 mice, survival T/C
Experiment: NCI In Vivo Anticancer Drug Screen. Data for tumor model L1210 Leukemia (intraperitoneal) in B6D2F1 (BDF1) mice
Conditions: endpoint: mean survival time, higher = longer survival
In short: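 Survival endpoint. Drug-treated group vs vehicle group, expressed as T divided by C. Tumor passaged by transplantation.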

[1] = dose: 100.0 mg/kg/injection, schedule: Q04DX002 (ip), vehicle: saline with Tween-80
[2] = dose: 200.0 mg/kg/injection, schedule: Q04DX002 (ip), vehicle: saline with Tween-80
[3] = dose: 25.0 mg/kg/injection, schedule: Q01DX009 (ip), vehicle: saline
[4] = dose: 25.0 mg/kg/injection, schedule: Q04DX003 (ip), vehicle: saline
[5] = dose: 50.0 mg/kg/injection, schedule: Q01DX009 (ip), vehicle: saline
[6] = dose: 50.0 mg/kg/injection, schedule: Q04DX003 (ip), vehicle: saline
[7] = dose: 100.0 mg/kg/injection, schedule: Q01DX009 (ip), vehicle: saline
[8] = dose: 100.0 mg/kg/injection, schedule: Q04DX003 (ip), vehicle: saline
[9] = dose: 50.0 mg/kg/injection, schedule: Q01DX009 (ip), vehicle: Klucel (hydroxypropylcellulose) (HPC)
[10] = dose: 100.0 mg/kg/injection, schedule: Q01DX009 (ip), vehicle: Klucel (hydroxypropylcellulose) (HPC)
[11] = dose: 200.0 mg/kg/injection, schedule: Q01DX009 (ip), vehicle: Klucel (hydroxypropylcellulose) (HPC)
[12] = dose: 100.0 mg/kg/injection, schedule: Q01DX001 (ip), vehicle: Klucel (hydroxypropylcellulose) (HPC)
[13] = dose: 100.0 mg/kg/injection, schedule: Q04DX003 (ip), vehicle: Klucel (hydroxypropylcellulose) (HPC)
[14] = dose: 200.0 mg/kg/injection, schedule: Q04DX003 (ip), vehicle: Klucel (hydroxypropylcellulose) (HPC)
[15] = dose: 400.0 mg/kg/injection, schedule: Q04DX003 (ip), vehicle: Klucel (hydroxypropylcellulose) (HPC)
[16] = dose: 100.0 mg/kg/injection, schedule: Q01DX001 (ip), vehicle: saline
[17] = dose: 200.0 mg/kg/injection, schedule: Q01DX001 (ip), vehicle: saline
[18] = dose: 400.0 mg/kg/injection, schedule: Q01DX001 (ip), vehicle: saline
[19] = dose: 100.0 mg/kg/injection, schedule: Q04DX002 (ip), vehicle: gum acacia
[20] = dose: 200.0 mg/kg/injection, schedule: Q04DX002 (ip), vehicle: gum acacia
[21] = dose: 400.0 mg/kg/injection, schedule: Q04DX002 (ip), vehicle: gum acacia

Measured: T/C

CC1CC(C)NC(=S)N1 (stereo not given)
inactive: dose: 50.0 mg/kg/injection, schedule: Q04DX002 (ip), vehicle: saline with Tween-80 98 % of control | [1] 102 % of control | [2] 98 % of control

CC(C)(C)OC(=O)C(CC(=O)O)NC(=O)OCc1ccccc1 (stereo not given) (tested in a mixture with another compound)
inactive: [3] 101 % of control | [4] 94 % of control | [5] 104 % of control | [6] 94 % of control | [7] 106 % of control | [8] 100 % of control and 91 % of control

CN(CCC#N)C(=O)Nc1ccc(Cl)c(Cl)c1
inactive: dose: 100.0 mg/kg/injection, schedule: Q04DX002 (ip), vehicle: other 109 % of control | dose: 200.0 mg/kg/injection, schedule: Q04DX002 (ip), vehicle: other 102 % of control | dose: 400.0 mg/kg/injection, schedule: Q04DX002 (ip), vehicle: other 102 % of control

O=C1c2ccccc2C(=O)N1c1cccc([N+](=O)[O-])c1
inactive: [9] 114 % of control | [10] 90 % of control | [11] 114 % of control

C[N+]1(C2CCC3CCC2C3O)CCOCC1 (stereo not given)
inactive: [5] 106 % of control and 124 % of control | [7] 100 % of control | [8] 103 % of control and 101 % of control | dose: 200.0 mg/kg/injection, schedule: Q01DX009 (ip), vehicle: saline 98 % of control | dose: 200.0 mg/kg/injection, schedule: Q04DX003 (ip), vehicle: saline 97 % of control and 105 % of control

CSc1ccccc1C1CCCCCC1OS(C)(=O)=O (stereo not given)
inactive: dose: 12.5 mg/kg/injection, schedule: Q04DX003 (ip), vehicle: Klucel (hydroxypropylcellulose) (HPC) 109 % of control | dose: 25.0 mg/kg/injection, schedule: Q01DX009 (ip), vehicle: Klucel (hydroxypropylcellulose) (HPC) 109 % of control | dose: 25.0 mg/kg/injection, schedule: Q04DX003 (ip), vehicle: Klucel (hydroxypropylcellulose) (HPC) 106 % of control | [9] 107 % of control | dose: 50.0 mg/kg/injection, schedule: Q04DX003 (ip), vehicle: Klucel (hydroxypropylcellulose) (HPC) 102 % of control | [12] 105 % of control | [10] 102 % of control | [13] 107 % of control

COc1ccc(NC(C)=O)cc1
inactive: [12] 107 % of control | dose: 200.0 mg/kg/injection, schedule: Q01DX001 (ip), vehicle: Klucel (hydroxypropylcellulose) (HPC) 100 % of control | dose: 400.0 mg/kg/injection, schedule: Q01DX001 (ip), vehicle: Klucel (hydroxypropylcellulose) (HPC) 103 % of control

Nc1nc(N)c2nc(-c3ccccc3)c(N)nc2n1
inactive: dose: 2.13 mg/kg/injection, schedule: Q01DX Z (ip), vehicle: other 91 % of control | dose: 6.25 mg/kg/injection, schedule: Q01DX Z (ip), vehicle: other 97 % of control | dose: 12.5 mg/kg/injection, schedule: Q01DX Z (ip), vehicle: other 105 % of control

O=C(O)Cn1c(=O)ccc2ccccc21
inactive: [1] 91 % of control | [2] 95 % of control | dose: 400.0 mg/kg/injection, schedule: Q04DX002 (ip), vehicle: saline with Tween-80 95 % of control

CCCCCCCCCCCCN=c1nc(N)ccn1C1OC(CO)C(O)C1O (stereo not given)
inactive: dose: 12.5 mg/kg/injection, schedule: Q01DX005 (ip), vehicle: saline 110 % of control | dose: 25.0 mg/kg/injection, schedule: Q01DX005 (ip), vehicle: saline 116 % of control

N=C(N)/C(N)=N\C1=NCCN1
inactive: [10] 101 % of control | [13] 95 % of control | dose: 178.0 mg/kg/injection, schedule: Q04DX003 (ip), vehicle: Klucel (hydroxypropylcellulose) (HPC) 97 % of control | [11] 101 % of control | [14] 93 % of control | dose: 266.0 mg/kg/injection, schedule: Q04DX003 (ip), vehicle: Klucel (hydroxypropylcellulose) (HPC) 92 % of control | [15] 90 % of control and 92 % of control | dose: 600.0 mg/kg/injection, schedule: Q04DX003 (ip), vehicle: Klucel (hydroxypropylcellulose) (HPC) 93 % of control

S=C=NCCc1ccccc1
inactive: dose: 12.5 mg/kg/injection, schedule: Q01DX009 (ip), vehicle: saline with Tween-80 101 % of control | dose: 25.0 mg/kg/injection, schedule: Q01DX009 (ip), vehicle: saline with Tween-80 104 % of control | dose: 50.0 mg/kg/injection, schedule: Q01DX009 (ip), vehicle: saline with Tween-80 108 % of control | dose: 100.0 mg/kg/injection, schedule: Q01DX009 (ip), vehicle: saline with Tween-80 87 % of control

CC(C)(C)C1CCC2OC(C)(C(C)(C)C)CC(C(C)(C)C)C2C1 (stereo not given)
inactive: dose: 100.0 mg/kg/injection, schedule: Q01DX001 (ip), vehicle: saline with Tween-80 100 % of control | dose: 200.0 mg/kg/injection, schedule: Q01DX001 (ip), vehicle: saline with Tween-80 100 % of control | dose: 400.0 mg/kg/injection, schedule: Q01DX001 (ip), vehicle: saline with Tween-80 95 % of control

O=c1[nH]nc(-c2ccncc2)s1
inactive: dose: 20.0 mg/kg/injection, schedule: Q04DX003 (ip), vehicle: saline 101 % of control | dose: 40.0 mg/kg/injection, schedule: Q04DX003 (ip), vehicle: saline 96 % of control | dose: 75.0 mg/kg/injection, schedule: Q01DX001 (ip), vehicle: saline 94 % of control | dose: 75.0 mg/kg/injection, schedule: Q04DX003 (ip), vehicle: saline 96 % of control | [8] 98 % of control

CCCC/C(=N\OC(=O)N(C)C)c1ccccc1
inactive: [16] 103 % of control | [17] 98 % of control | [18] 98 % of control

O=C(Nc1ccc(Cl)cc1)C(=O)Nc1ccc(Cl)cc1
inactive: [19] 107 % of control | [20] 89 % of control | [21] 93 % of control

CCOC(=O)/C(C#N)=C/c1cccn1Cc1cc2ccccc2c2ccccc12
inactive: dose: 25.0 mg/kg/injection, schedule: Q04DX002 (ip), vehicle: saline 111 % of control | dose: 50.0 mg/kg/injection, schedule: Q04DX002 (ip), vehicle: saline 111 % of control | dose: 100.0 mg/kg/injection, schedule: Q04DX002 (ip), vehicle: saline 105 % of control

O=C(CCc1cccnc1)Nc1ccccc1
inactive: [13] 102 % of control | [14] 100 % of control | [15] 94 % of control

NC1(c2ccccc2)CCCCC1
inactive: dose: 3.12 mg/kg/injection, schedule: Q01DX009 (ip), vehicle: saline 110 % of control | dose: 6.25 mg/kg/injection, schedule: Q01DX009 (ip), vehicle: saline 104 % of control | dose: 12.5 mg/kg/injection, schedule: Q01DX009 (ip), vehicle: saline 105 % of control | [3] 103 % of control | [4] 98 % of control | [5] 105 % of control | [6] 101 % of control

Cc1ccc(Cl)cc1NC(=O)Oc1cc(C)c(Cl)c(C)c1
inactive: [10] 94 % of control | [11] 96 % of control

CC1CCCCN1C(=O)Nc1cccc(C(F)(F)F)c1 (stereo not given)
inactive: dose: 100.0 mg/kg/injection, schedule: Q01DX001 (ip), vehicle: gum acacia 100 % of control and 103 % of control | dose: 100.0 mg/kg/injection, schedule: Q01DX009 (ip), vehicle: gum acacia 107 % of control | [19] 93 % of control | dose: 100.0 mg/kg/injection, schedule: Q04DX003 (ip), vehicle: gum acacia 100 % of control and 101 % of control | dose: 200.0 mg/kg/injection, schedule: Q01DX001 (ip), vehicle: gum acacia 95 % of control and 105 % of control | dose: 200.0 mg/kg/injection, schedule: Q01DX009 (ip), vehicle: gum acacia 106 % of control | [20] 96 % of control and 98 % of control | dose: 200.0 mg/kg/injection, schedule: Q04DX003 (ip), vehicle: gum acacia 95 % of control | dose: 400.0 mg/kg/injection, schedule: Q01DX001 (ip), vehicle: gum acacia 92 % of control and 102 % of control | dose: 400.0 mg/kg/injection, schedule: Q01DX009 (ip), vehicle: gum acacia 102 % of control | [21] 93 % of control and 86 % of control | dose: 400.0 mg/kg/injection, schedule: Q04DX003 (ip), vehicle: gum acacia 98 % of control and 100 % of control

OCCN1CCNCC1
inactive: [16] 105 % of control | [17] 105 % of control | [18] 100 % of control
